In the assay the target is T1, F508del (Homo sapiens, UniProt P13569, DEL508-508).
T1 construct: expressed in transfected cells
T1 sequence (P13569 with tags, fused parts or gaps DEL508-508): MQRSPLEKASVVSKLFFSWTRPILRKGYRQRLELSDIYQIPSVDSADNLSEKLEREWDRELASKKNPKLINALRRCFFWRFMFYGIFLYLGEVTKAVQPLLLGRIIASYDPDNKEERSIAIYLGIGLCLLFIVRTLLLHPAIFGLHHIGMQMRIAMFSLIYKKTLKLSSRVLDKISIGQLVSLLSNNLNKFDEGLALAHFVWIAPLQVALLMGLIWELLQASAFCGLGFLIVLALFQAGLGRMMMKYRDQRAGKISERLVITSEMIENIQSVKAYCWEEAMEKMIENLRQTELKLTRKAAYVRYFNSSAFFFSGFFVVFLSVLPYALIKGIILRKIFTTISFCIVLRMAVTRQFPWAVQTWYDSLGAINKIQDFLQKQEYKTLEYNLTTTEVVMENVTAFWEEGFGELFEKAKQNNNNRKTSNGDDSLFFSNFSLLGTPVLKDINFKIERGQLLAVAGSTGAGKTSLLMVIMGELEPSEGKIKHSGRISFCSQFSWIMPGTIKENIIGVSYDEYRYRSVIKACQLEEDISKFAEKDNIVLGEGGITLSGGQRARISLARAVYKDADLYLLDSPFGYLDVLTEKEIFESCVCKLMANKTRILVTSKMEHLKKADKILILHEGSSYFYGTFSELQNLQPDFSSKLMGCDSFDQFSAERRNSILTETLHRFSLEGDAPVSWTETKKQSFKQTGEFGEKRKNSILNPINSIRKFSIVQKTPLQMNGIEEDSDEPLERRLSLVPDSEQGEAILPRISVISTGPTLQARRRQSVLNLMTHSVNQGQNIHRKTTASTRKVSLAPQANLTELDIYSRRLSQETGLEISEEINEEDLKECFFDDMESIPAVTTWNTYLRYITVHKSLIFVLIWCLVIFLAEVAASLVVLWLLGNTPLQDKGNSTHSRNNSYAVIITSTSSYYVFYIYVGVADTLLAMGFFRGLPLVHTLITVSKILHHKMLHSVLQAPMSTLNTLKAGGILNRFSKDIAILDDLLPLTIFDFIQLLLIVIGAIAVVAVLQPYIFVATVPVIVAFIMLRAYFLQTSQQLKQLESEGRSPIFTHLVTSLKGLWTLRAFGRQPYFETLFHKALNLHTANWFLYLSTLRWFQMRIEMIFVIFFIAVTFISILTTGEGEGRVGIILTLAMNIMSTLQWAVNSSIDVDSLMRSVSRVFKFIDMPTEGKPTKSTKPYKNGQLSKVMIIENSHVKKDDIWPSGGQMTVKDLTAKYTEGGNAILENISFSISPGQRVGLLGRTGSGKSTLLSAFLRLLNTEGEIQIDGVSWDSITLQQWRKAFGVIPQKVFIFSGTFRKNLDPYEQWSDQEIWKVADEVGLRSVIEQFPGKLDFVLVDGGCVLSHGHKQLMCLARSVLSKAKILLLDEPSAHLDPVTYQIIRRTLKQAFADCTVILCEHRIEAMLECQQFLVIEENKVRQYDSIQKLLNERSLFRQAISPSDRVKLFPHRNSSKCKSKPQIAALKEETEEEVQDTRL
Nature of the assay: Protocol 1: membrane potential optical assay (FLIPR III, voltage sensing dye), identification of potentiator compounds. Format: cell-based. Particulars: Table 3, compounds of Table 1. A digest of the protocol: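 NIH3T3 F508del cells, 27° C × 24 hrs; compound/DMSO pretreat → redistribution dye load → single forskolin addition with Cl⁻ gradient (gluconate-substituted bath, HEPES pH 7.4). FLIPR III membrane-potential fluorescence read.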
For `C[C@@H]1CN(c2nc(C#N)ccc2C(=O)NS(=O)(=O)c2cccc(N)n2)C(C)(C)C1` [Compound 1564, N-[(6-amino-2-pyridyl)sulfonyl]-6-cyano-2-[(4S)-2,2,4-trimethylpyrrolidin-1-yl]pyridine-3-carboxamide], the EC30 result was “++ (“++” means between 3 uM and 10 uM)”. To `CC(C)Oc1ccc(-c2ccc(C(=O)NS(=O)(=O)c3cccc(N)n3)c(N3CCC[C@H]3C(F)(F)F)n2)cn1` [Compound 1248, N-[(6-amino-2-pyridyl)sulfonyl]-6-(6-isopropoxy-3-pyridyl)-2-[(2S)-2-(trifluoromethyl)pyrrolidin-1-yl]pyridine-3-carboxamide] belongs “+++ (“+++” means <3 uM)”; to `COc1ccc(-c2ccc(C(=O)NS(=O)(=O)c3cccnc3N)c(N3C[C@@H](C)CC3(C)C)n2)cc1C` [Compound 1747, N-[(2-amino-3-pyridyl)sulfonyl]-6-(4-methoxy-3-methyl-phenyl)-2-[(4S)-2,2,4-trimethylpyrrolidin-1-yl]pyridine-3-carboxamide], “+++ (“+++” means <3 uM)”; to `COc1cc(-c2ccc(C(=O)NS(=O)(=O)c3cccc(N)n3)c(N3C[C@@H](C)CC3(C)C)n2)cc(C)n1` [Compound 1748, N-[(6-amino-2-pyridyl)sulfonyl]-6-(2-methoxy-6-methyl-4-pyridyl)-2-[(4S)-2,2,4-trimethylpyrrolidin-1-yl]pyridine-3-carboxamide], “+++ (“+++” means <3 uM)”.

`Cc1cc(C)c(Oc2nc(-c3cnc(NC4CC4)nc3)ccc2C(=O)NS(=O)(=O)c2cccc(N)n2)c(C)c1` [Compound 1126, N-[(6-amino-2-pyridyl)sulfonyl]-6-[2-(cyclopropylamino)pyrimidin-5-yl]-2-(2,4,6-trimethylphenoxy)pyridine-3-carboxamide]: the EC30 entry is recorded as “+ (“+” means greater than 10 uM)”. On to `C[C@@H]1CN(c2nc(-c3ccc(F)cc3F)ccc2C(=O)NS(=O)(=O)N2CC[C@H](N)C2)C(C)(C)C1` [Compound 1947, N-[(3S)-3-aminopyrrolidin-1-yl]sulfonyl-6-(2,4-difluorophenyl)-2-[(4S)-2,2,4-trimethylpyrrolidin-1-yl]pyridine-3-carboxamide], for which the EC30 entry is “++ (“++” means between 3 uM and 10 uM)”.

For `CO[C@@H]1CCN(S(=O)(=O)NC(=O)c2ccc(-c3cc(F)cc(OCC(C)C)c3)nc2N2C[C@@H](C)CC2(C)C)C1` [Compound 1893, 6-(3-fluoro-5-isobutoxy-phenyl)-N-[(3R)-3-methoxypyrrolidin-1-yl]sulfonyl-2-[(4S)-2,2,4-trimethylpyrrolidin-1-yl]pyridine-3-carboxamide], the EC30 result is recorded as “+++ (“+++” means <3 uM)”. To `CC(=O)c1cccc(Nc2cccc(S(=O)(=O)NC(=O)c3cccnc3N3CC(C)CC3(C)C)n2)c1` (stereo not drawn) [Compound 1949, N—[[6-(3-acetylanilino)-2-pyridyl]sulfonyl]-2-(2,2,4-trimethylpyrrolidin-1-yl)pyridine-3-carboxamide] belongs “+++ (“+++” means <3 uM)”.

On to `CC(C)COc1cc(F)cc(-c2ccc(C(=O)NS(=O)(=O)C3CC3)c(N3C[C@@H](C)CC3(C)C)n2)c1` [Compound 1525, N-cyclopropylsulfonyl-6-(3-fluoro-5-isobutoxy-phenyl)-2-[(4S)-2,2,4-trimethylpyrrolidin-1-yl]pyridine-3-carboxamide], for which the EC30 entry is reported as “+++ (“+++” means <3 uM)”. In the case of `CCOC1CCCN(c2nc(-c3ccc(OC(C)C)nc3)ccc2C(=O)NS(=O)(=O)c2cccc(N)n2)C1` (stereo not drawn) [Compound 960, N-[(6-amino-2-pyridyl)sulfonyl]-2-(3-ethoxy-1-piperidyl)-6-(6-isopropoxy-3-pyridyl)pyridine-3-carboxamide], the EC30 result was “++ (“++” means between 3 uM and 10 uM)”.

`Cc1cc(C)c(CN2C(C(=O)NS(=O)(=O)c3cccc(N)n3)c3ccccc3C2(C)C)c(C)c1` (stereo not drawn) [Compound 1101, N-[(6-amino-2-pyridyl)sulfonyl]-3,3-dimethyl-2-[(2,4,6-trimethylphenyl)methyl]isoindoline-1-carboxamide]: the EC30 entry is “+++ (“+++” means <3 uM)”. With `[2H]C1([2H])[C@@H](C)CC(C)(C)N1c1nc(-c2cc(F)cc(OCC(C)C)c2)ccc1C(=O)NS(=O)(=O)c1cccc(N)n1` [Compound 1400, N-[(6-amino-2-pyridyl)sulfonyl]-2-[(3S)-2,2-dideuterio-3,5,5-trimethyl-pyrrolidin-1-yl]-6-(3-fluoro-5-isobutoxy-phenyl)pyridine-3-carboxamide], the EC30 result was “+++ (“+++” means <3 uM)”. Regarding `Cc1cc(C)c(Oc2nc(C(C)(C)C)ccc2C(=O)NS(=O)(=O)c2cnc(N)s2)c(C)c1` [Compound 1148, N-(2-aminothiazol-5-yl)sulfonyl-6-tert-butyl-2-(2,4,6-trimethylphenoxy)pyridine-3-carboxamide], the EC30 result is “+++ (“+++” means <3 uM)”. To `CCC(CC)Oc1ccc(-c2ccc(C(=O)NS(=O)(=O)c3cccc(N)n3)c(N3CC(C)CC3(C)C)n2)cn1` (stereo not drawn) [Compound 1076, N-[(6-amino-2-pyridyl)sulfonyl]-6-[6-(1-ethylpropoxy)-3-pyridyl]-2-(2,2,4-trimethylpyrrolidin-1-yl)pyridine-3-carboxamide] belongs “+++ (“+++” means <3 uM)”; to `Cc1cc(C)c(Oc2nc(-c3ccc(O)cc3)ccc2C(=O)NS(=O)(=O)c2cccc(N)n2)c(C)c1` [Compound 1344, N-[(6-amino-2-pyridyl)sulfo]-6-(4-hydroxyphenyl)-2-(2,4,6-trimethylphenoxy)pyridine-3-carboxamide], “++ (“++” means between 3 uM and 10 uM)”; to `CCOCCc1ccc(C(=O)NS(=O)(=O)c2cccc(N)n2)c(Oc2c(C)cc(C)cc2C)n1` [Compound 929, N-[(6-amino-2-pyridyl)sulfonyl]-6-(2-ethoxyethyl)-2-(2,4,6-trimethylphenoxy)pyridine-3-carboxamide], “++ (“++” means between 3 uM and 10 uM)”. The value for `CC(C)COc1cc(F)cc(-c2ccc(C(=O)NS(=O)(=O)c3cccc(N)n3)c(OCCc3ccncc3)n2)c1` [Compound 1605, N-[(6-amino-2-pyridyl)sulfonyl]-6-(3-fluoro-5-isobutoxy-phenyl)-2-[2-(4-pyridyl)ethoxy]pyridine-3-carboxamide] was “+++ (“+++” means <3 uM)”; that for `Cc1ccc(OCC(C)(C)C)nc1-c1ccc(C(=O)NS(=O)(=O)c2cccc(N)n2)c(N2CC(C)CC2(C)C)n1` (stereo not drawn) [Compound 1645, N-[(6-amino-2-pyridyl)sulfonyl]-6-[6-(2,2-dimethylpropoxy)-3-methyl-2-pyridyl]-2-(2,2,4-trimethylpyrrolidin-1-yl)pyridine-3-carboxamide] was “+++ (“+++” means <3 uM)”.

With `CC(=O)NC1CCCN(S(=O)(=O)NC(=O)c2ccc(-c3cc(F)cc(OCC(C)C)c3)nc2N2CC(C)CC2(C)C)C1` (stereo not drawn) [Compound 1586, N-[(3-acetamido-1-piperidyl)sulfonyl]-6-(3-fluoro-5-isobutoxy-phenyl)-2-(2,2,4-trimethylpyrrolidin-1-yl)pyridine-3-carboxamide], the EC30 result was “+++ (“+++” means <3 uM)”. The value for `Cc1cc(C)c(Oc2nc(-c3ccccc3)ccc2C(=O)NS(=O)(=O)c2cccc(N(C)C)n2)c(C)c1` [Compound 869, N-[[6-(dimethylamino)-2-pyridyl]sulfonyl]-6-phenyl-2-(2,4,6-trimethylphenoxy)pyridine-3-carboxamide] was “+++ (“+++” means <3 uM)”; that for `COc1ccccc1S(=O)(=O)NC(=O)c1cc(C(C)(C)C)nn1Cc1c(C)cccc1C` [Compound 1551, 5-tert-butyl-2-[(2,6-dimethylphenyl)methyl]-N-(2-methoxyphenyl)sulfonyl-pyrazole-3-carboxamide] was “+++ (“+++” means <3 uM)”; that for `COc1ncc(-c2ccc(C(=O)NS(=O)(=O)c3nccnc3N)c(N3CCC(C)CC3)n2)cc1C` [Compound 1191, N-(3-aminopyrazin-2-yl)sulfonyl-6-(6-methoxy-5-methyl-3-pyridyl)-2-(4-methyl-1-piperidyl)pyridine-3-carboxamide] was “++ (“++” means between 3 uM and 10 uM)”.

For the molecule `CC(C)CS(=O)(=O)N1CCC=C(c2ccc(C(=O)NS(=O)(=O)c3cccc(N)n3)c(N3C[C@@H](C)CC3(C)C)n2)C1` [Compound 1882, N-[(6-amino-2-pyridyl)sulfonyl]-6-(1-isobutylsulfonyl-3,6-dihydro-2H-pyridin-5-yl)-2-[(4S)-2,2,4-trimethylpyrrolidin-1-yl]pyridine-3-carboxamide], the EC30 entry is listed as “+ (“+” means greater than 10 uM)”. The value for `COc1cc(-c2ccc(C(=O)NS(=O)(=O)c3ccc[nH]c3=O)c(N3C[C@@H](C)CC3(C)C)n2)cc(F)c1F` [Compound 1914, 6-(3,4-difluoro-5-methoxy-phenyl)-N-[(2-oxo-1H-pyridin-3-yl)sulfonyl]-2-[(4S)-2,2,4-trimethylpyrrolidin-1-yl]pyridine-3-carboxamide] was “+++ (“+++” means <3 uM)”. The value for `COc1ccc(-c2ccc(C(=O)NS(=O)(=O)c3cccc(N)n3)c(Oc3c(C)cc(C)cc3C)n2)cc1O` [Compound 1251, N-[(6-amino-2-pyridyl)sulfonyl]-6-(3-hydroxy-4-methoxy-phenyl)-2-(2,4,6-trimethylphenoxy)pyridine-3-carboxamide] was “++ (“++” means between 3 uM and 10 uM)”; that for `C[C@@H]1CN(c2nc(N3C[C@@H](C)CC3(C)C)c(C(=O)NS(=O)(=O)c3cccc(N)n3)cc2F)C(C)(C)C1` [Compound 1673, N-[(6-amino-2-pyridyl)sulfonyl]-5-fluoro-2,6-bis[(4S)-2,2,4-trimethylpyrrolidin-1-yl]pyridine-3-carboxamide] was “+++ (“+++” means <3 uM)”.

Take `C[C@@H]1CN(c2nc(C(C)(C)C)c(/C=C/C(=O)O)cc2C(=O)NS(=O)(=O)c2cccc(N)n2)C(C)(C)C1` [Compound 1547, (E)-3-[5-[(6-amino-2-pyridyl)sulfonylcarbamoyl]-2-tert-butyl-6-[(4S)-2,2,4-trimethylpyrrolidin-1-yl]-3-pyridyl]prop-2-enoic acid]: the EC30 result was “++ (“++” means between 3 uM and 10 uM)”.

For the origin of these results see patent US10758534B2 (Vertex Pharmaceuticals Incorporated, priority 2014, dated 2020).
